The target in assay [1] is T1, human 5-lipoxygenase enzyme (Homo sapiens, UniProt P09917).
T1 construct: endogenous in cells; host or cells: human whole blood (leukocytes) stimulated with A23187
T1 sequence (P09917 1-674): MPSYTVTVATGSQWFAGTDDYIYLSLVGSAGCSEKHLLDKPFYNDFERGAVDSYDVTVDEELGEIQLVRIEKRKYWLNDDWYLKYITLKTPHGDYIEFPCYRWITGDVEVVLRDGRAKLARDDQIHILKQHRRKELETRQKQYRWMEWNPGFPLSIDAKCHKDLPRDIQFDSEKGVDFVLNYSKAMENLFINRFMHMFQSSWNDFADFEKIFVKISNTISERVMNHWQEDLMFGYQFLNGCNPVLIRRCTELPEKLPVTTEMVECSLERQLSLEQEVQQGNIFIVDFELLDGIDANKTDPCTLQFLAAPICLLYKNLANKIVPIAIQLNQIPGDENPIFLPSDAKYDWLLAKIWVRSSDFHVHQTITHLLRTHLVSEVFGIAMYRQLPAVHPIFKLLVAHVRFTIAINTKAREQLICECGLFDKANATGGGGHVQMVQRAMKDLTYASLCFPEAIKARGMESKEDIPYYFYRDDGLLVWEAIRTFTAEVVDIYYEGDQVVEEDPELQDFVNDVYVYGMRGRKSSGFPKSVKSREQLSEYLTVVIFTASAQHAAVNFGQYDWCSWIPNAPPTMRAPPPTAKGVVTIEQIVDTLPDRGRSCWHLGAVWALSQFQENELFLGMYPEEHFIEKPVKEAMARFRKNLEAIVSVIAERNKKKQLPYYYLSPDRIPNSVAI
As to the kind of experiment: Inhibition of LTB4 production in human whole blood. It counts as cell-based. To be noted: human whole blood, calcium ionophore A23187 50 μM, LTB4 by EIA; read-out: HWB IC50. Here is the method: This assay examines the ability of a compound to inhibit leukotriene B4 production from human blood stimulated with calcium ionophore. As this production of leukotriene B4 is mediated via the activation of the 5-lipoxygenase enzyme, this assay is predictive of a compound's ability to inhibit the human 5-lipoxygenase enzyme.
The procedure for the assay is as follows. Blood is drawn from normal human volunteers into tubes containing heparin. 1 ml of the heparinized blood is pipetted into a 1.5 ml polypropylene tube. To this sample is added either different concentrations of the test compound (5 μl) dissolved in DMSO or 5 μl of DMSO as a vehicle control. These samples are incubated in a water bath, at 37° C. for 15 min. 5 μl of the calcium ionophore A23187 (at a final concentration of 50 μM) is then added to each sample, which is vortexed and placed back in the water bath for 30 min. The samples are then centrifuged at 2500 rpm for 10 min. at 4° C. 50 μl of the supernatant is transferred into pre-cooled Eppendorf tubes containing 950 μl of enzyme immunoassay (EIA) buffer. A commercially available EIA kit (Cayman Chemical Co., Ann Arbor, Mich., USA) is used to subsequently measure the LTB4 production in the samples. The LTB4 levels produced in the vehicle control sample is then compared to those in which the test compound has been added. From this a percent inhibition of LTB4 production by each concentration of test compound is calculated and the IC50 for inhibition of LTB4 production for each test compound is determined.

Another assay deals with T2, human cloned H1 receptor (Homo sapiens, UniProt P35367).
T2 construct: expressed in transfected cells; host or cells: CHO-K1
T2 sequence (P35367 whole entry): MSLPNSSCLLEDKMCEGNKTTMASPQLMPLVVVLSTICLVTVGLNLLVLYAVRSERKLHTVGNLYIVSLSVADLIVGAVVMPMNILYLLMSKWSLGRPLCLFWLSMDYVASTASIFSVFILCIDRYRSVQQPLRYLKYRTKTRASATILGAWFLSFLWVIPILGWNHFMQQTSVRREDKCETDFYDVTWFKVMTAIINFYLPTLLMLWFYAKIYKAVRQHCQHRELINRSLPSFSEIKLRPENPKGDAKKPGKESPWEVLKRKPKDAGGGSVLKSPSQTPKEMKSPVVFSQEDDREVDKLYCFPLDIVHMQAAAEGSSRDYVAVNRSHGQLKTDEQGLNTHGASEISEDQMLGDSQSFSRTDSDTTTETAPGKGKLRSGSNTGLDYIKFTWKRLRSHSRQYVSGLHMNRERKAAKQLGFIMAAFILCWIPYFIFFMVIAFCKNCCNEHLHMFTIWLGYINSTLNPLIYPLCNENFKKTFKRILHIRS
As to the kind of experiment: CHO-K1 H1R binding assay. To be noted: 3H-pyrilamine 2 nM, CHO-K1 membranes, 3 hours at 37° C.; read-out: CHOH1 K1.

Another assay relates to 5-lipoxygenase. As to the kind of experiment: 5-Lipoxygenase inhibitory activity in vivo. The following applies: guinea pig, oral, 2 mg/kg, 6 hours. The procedure:
Male, Hartley guinea pigs are obtained from Charles River Labs at a body weight of 350-400 grams. Compounds are prepared at a volume of [1-2 mg/ml] in 1% methocellulose for oral dosing. Animals are separated into groups of five (5). Each assay includes a control group dosed with vehicle. Each group of animals is dosed with either vehicle or compound by oral gavage. Animals are allowed to rest for one, three, or six hours after dosing. Control animals are allowed to rest for three hours. At the appropriate times, the animals are anesthetized with Urethane at 1.5 g/kg, ip. Blood is drawn into a heparinized syringe via cardiac puncture. Blood (0.5 ml) is aliquoted into separately-labeled 1.5 ml eppendorf tubes. Each sample is loaded with 5 μl of [15 mM] Arachidonic Acid, and placed in a 37° C. water bath for five minutes. After five minutes, the blood is stimulated with 5 μl of [5 mM] A23187 (Calcium Ionophore) and retained in the water bath for an additional 30 minutes. After the thirty minutes, the blood samples are removed from the water bath and centrifuged at 14,000 rpm for 2 minutes. Plasma is diluted to EIA buffer and an EIA is performed following manufacturer instructions (Cayman Chemical Co., Ann Arbor, Mich., USA). The results (Table 3) show the percent inhibition of 5-lipoxygenase by selected compounds at multiple time points post oral dosing. 50% inhibition or greater is considered significant.

Assay [2] deals with histamine-induced bronchoconstriction. As to the kind of experiment: Antihistaminergic activity in vivo (histamine-induced bronchoconstriction). The following applies: Cavia porcellus, guinea pig, oral, 2 mg/kg. Here is the method: Male, Hartley guinea pigs are obtained from Charles River Labs at a body weight of 350 -400 grams. Inhibition of histamine activity is measured by the method of Konzett and Rössler (Naonyn-Schmiedebergs Arch. Exp. Path. Pharmakol. 195, 71-74 (1940). Anaethetized guinea pigs are subjected to artificial ventilation. The endotracheal pressure is recorded. Bronchoconstriction is induced by successive intravenous injections of histamine. The test compounds are administered orally in a 1% methocellulose suspension at set timepoints prior to the administration of histamine.
The results (Table 2) show the percent inhibition of histamine-induced bronchoconstriction by selected compounds at multiple time points post oral dosing. 50% inhibition or greater is considered significant.

Description for human cloned H1 receptor: CHO-K1 cells expressing the human cloned H1 receptor are grown to confluence in tissue culture dishes. Cells are harvested using D-PBS buffer (JRH Biosciences), kept at 4° C., centrifuging to pellet cells (4° C., 500 g, 10 min). The final cell pellet is homogenized and resuspended using Tris/sucrose buffer (20 mM Tris, 250 mM sucrose, pH 7.4 at 4° C.). Aliquots of the membrane preparation are stored at −70° C.
On the day of assay, the membrane preparation is thawed and centrifuged (TLA100.3 rotor, 4° C., 15 min, 23,000 rpm). The pellet is resuspended in Tris/sucrose buffer initially and then diluted further as necessary using assay buffer A (50 mM Na/KPO4, 2 mM MgCl2, 0.5% (w/v) BSA, pH 7.5).
For the binding assay, the membrane preparation, test compound and ^3H-pyrilamine (2 nM final) in buffer A with 1% (v/v) DMSO final are incubated in a 96-well polypropylene plate for 3 hours at 37° C. Non-specific binding is determined in the presence of 10 μM pyrilamine. A 96-well harvester (Packard) is used to harvest the 96-well plate onto a GF/B filter plate pre-treated with 0.1% (v/v) PEI. The plate is counted in a Packard Topcounter after adding Microscint 20 (Packard) scintillation fluid. The Ki for each compound at the histamine H1 receptor is then calculated from these counts.

One may read the IC50 as the midpoint of a concentration-inhibition curve. As for `COC(=O)c1cc(C#CCCN(O)C(N)=O)ccc1OCCN1CCN([C@H](c2ccccc2)c2ccc(Cl)cc2)CC1` [Compound 36, methyl2-(2-{4-[(1R) (4-chlorophenyl)phenyl-methyl]piperazinyl}ethoxy)-5-[4-(amino-hydroxycarbonylamino)but-1-ynyl]benzoate], in assay [1], the IC50 was determined as 94 nM. In addition, the Ki on human cloned H1 receptor was 420 nM.
With `NC(=O)c1cc(CCCCN(O)C(N)=O)ccc1OCCN1CCN([C@H](c2ccccc2)c2ccc(Cl)cc2)CC1` [Compound 42, 2-(2-{4-[(1R)(4-chloro-phenyl)phenylmethyl]piperazinyl}ethoxy)-5-[4-(aminohydroxy-carbonylamino)butyl] benzamide], in assay [1], the IC50 came to 106 nM. Besides, the Ki at human cloned H1 receptor was found to be 35 nM.
For `NC(=O)N(O)Cc1ccc(CN2CCN([C@H](c3ccccc3)c3ccc(Cl)cc3)CC2)o1` [Compound 26, N-{[5-({4-[(1R) (4-chlorophenyl)phenylmethyl]piperazinyl}methyl)(2-furyl)]methyl} amino-N-hydroxyamide], the IC50 in assay [1] turned out to be 1710 nM. For the same molecule, the Ki on human cloned H1 receptor is 4 nM.
As for “N-[2-(2-{4-[(1R)(4-chlorophenyl)phenylmethyl] piperazinyl}ethoxy)ethyl]amino-N-hydroxyamide [Compound 22]”, the IC50 in assay [1] is 1470 nM. In addition, on human cloned H1 receptor, the Ki worked out at 8 nM.
One may read the inhibition in vivo as the share of the control response that was lost under treatment. A lower inhibition in vivo goes with a weak effect. As to `NC(=O)N(O)CCC#Cc1ccc(OCCN2CCN([C@H](c3ccccc3)c3ccc(Cl)cc3)CC2)cc1` [Compound 12, N-{4-[4-(2-{4-[(1R) (4-chlorophenyl)phenylmethyl]piperazinyl}ethoxy)phenyl]but-3-ynyl} amino-N-hydroxyamide], the IC50 in assay [1] stood at 267 nM. In addition, the “% inhibition of 5-lipoxygenase” value in the assay on 5-lipoxygenase is given as 80%. The results for the inhibition in vivo at 2 mg/kg in assay [2] (3 hrs) and in assay [2] (6 hrs) were 62% and 66%, respectively.
Turning to `NC(=O)N(O)CCCCc1cccc(OCCN2CCN(C(c3ccccc3)c3ccccc3)CC2)c1` [Compound 30, amino-N-[4-(3-{2-[4-(diphenylmethyl)piperazinyl]ethoxy}phenyl)butyl]-N-hydroxyamide], in assay [1], the IC50 was found to be 412 nM. Moreover, the Ki at human cloned H1 receptor came to 36 nM.
`NC(=O)N(O)Cc1ccc(CCCN2CCN([C@H](c3ccccc3)c3ccc(Cl)cc3)CC2)cc1` [Compound 13, N-{[4-(3-{4-[(1R) (4-chlorophenyl)phenylmethyl]piperazinyl}propyl)phenyl]methyl} amino-N-hydroxyamide]: in assay [1], the IC50 was determined as 2440 nM. Also, the Ki at human cloned H1 receptor worked out at 10 nM.
For `NC(=O)N(O)CCCCc1ccc(OCCN2CCN([C@H](c3ccccc3)c3ccc(Cl)cc3)CC2)c(C(=O)O)c1` [Compound 43, 2-(2-{4-[(1R)(4-chlorophenyl)phenylmethyl]piperazinyl}ethoxy)-5-[4-(aminohydroxycarbonylamino)butyl] benzoic acid], in assay [1], the half-inhibitory concentration (IC50) came out at 2740 nM. In addition, on human cloned H1 receptor, the Ki was 2 nM.
As to `COC(=O)c1cc(CCCCN(O)C(N)=O)ccc1OCCN1CCN([C@H](c2ccccc2)c2ccc(Cl)cc2)CC1` [Compound 40, methyl2-(2-{4-[(1R) (4-chlorophenyl)phenyl-methyl]piperazinyl}ethoxy)-5-[4-(amino-hydroxycarbonylamino)butyl]benzoate], the concentration for half-maximal inhibition (IC50) in assay [1] is 122 nM. Besides, at human cloned H1 receptor, the Ki came out at 120 nM.
The matching figures for `NC(=O)N(O)Cc1ccc(C#CCN2CCN([C@H](c3ccccc3)c3ccc(Cl)cc3)CC2)cc1` [Compound 3, N-{[4-(3-{4-[(1R) (4-chlorophenyl)phenylmethyl]piperazinyl}prop-1-ynyl)phenyl]methyl} amino-N-hydroxyamide]: 1680 nM and 260 nM.
`NC(=O)N(O)CCC#C[C@@H]1CC[C@@H](CN2CCN([C@H](c3ccccc3)c3ccc(Cl)cc3)CC2)O1` [Compound 46, N-{4-[5-({4-[(1R)(4-chlorophenyl)phenylmethyl]piperazinyl}methyl)(2S,5S)oxolan-2-yl]but-3-ynyl}amino-N-hydroxyamide]: the IC50 in assay [1] turned out to be 313 nM. In addition, the Ki at human cloned H1 receptor amounted to 133 nM.
For the molecule `CN(O)C(=O)NCc1cccc(OCCN2CCN([C@H](c3ccccc3)c3ccc(Cl)cc3)CC2)c1` [Compound 24, N-{[3-(2-{4-[(1R) (4-chlorophenyl)phenylmethyl]piperazinyl}ethoxy)phenyl]methyl} (methyl(hydroxyamino)) carboxamide], in assay [1], the IC50 stood at 253 nM. For the same molecule, the Ki at human cloned H1 receptor is 7 nM.
Take `NC(=O)N(O)CC#CCN1CCN([C@H](c2ccccc2)c2ccc(Cl)cc2)CC1` [Compound 9, N-(4-{4-[(1R) (4-chlorophenyl)phenylmethyl]piperazinyl}but-2-ynyl) amino-N-hydroxyamide]: the IC50 in assay [1] stood at 4220 nM. The Ki on human cloned H1 receptor is 12 nM.
Taken in the same sequence, the figures for `NC(=O)N(O)Cc1cccc(OCCN2CCN([C@H](c3ccccc3)c3ccc(Cl)cc3)CC2)c1` [Compound 5, N-{[3-(2-{4-[(1R) (4-chlorophenyl)phenylmethyl]piperazinyl}ethoxy)phenyl]methyl} amino-N-hydroxyamide] were 2040 nM and 23 nM.
For `NC(=O)N(O)CC#CCN1CCN(C(c2ccc(F)cc2)c2ccc(F)cc2)CC1` [Compound 16, amino-N-(4-{4-[bis(4-fluorophenyl)methyl]piperazinyl}but-2-ynyl)-N-hydroxyamide], in assay [1], the IC50 was found to be 2660 nM. In addition, the Ki on human cloned H1 receptor was 94 nM.
On to `NC(=O)N(O)CCC#Cc1ccc(OCCN2CCN([C@H](c3ccccc3)c3ccc(Cl)cc3)CC2)c(C(=O)O)c1` [Compound 37, 2-(2-{4-[(1R)(4-chlorophenyl)phenyl-methyl]piperazinyl}ethoxy)-5-[4-(amino-hydroxycarbonylamino)but-1-ynyl]benzoic acid], for which, in assay [1], the IC50 was found to be 6590 nM. In addition, the Ki at human cloned H1 receptor turned out to be 4 nM.
As for `NC(=O)N(O)CCOCCN1CCN([C@H](c2ccccc2)c2ccc(Cl)cc2)CC1` (racemic) [Compound 18, amino-N-[2-(2-{4-[(4-chlorophenyl)phenylmethyl]piperazinyl}ethoxy)ethyl]-N-hydroxyamide], the IC50 in assay [1] worked out at 2100 nM. For the same molecule, at human cloned H1 receptor, the Ki amounted to 15 nM.
For `NC(=O)N(O)Cc1cccc(C#CCN2CCN([C@H](c3ccccc3)c3ccc(Cl)cc3)CC2)c1` [Compound 8, N-{[3-(3-{4-[(1R) (4-chlorophenyl)phenylmethyl]piperazinyl}prop-1-ynyl)phenyl]methyl} amino-N-hydroxyamide], the IC50 in assay [1] is 5770 nM. In addition, the Ki on human cloned H1 receptor was 220 nM.

The values are drawn from patent US6451801B1, “Compounds and methods for treatment of asthma, allergy and inflammatory disorders” (UCB, S.A., priority 1999, dated 2002).
